Columns and labels:
Assay in all cases: Test B pre-/postemergence
Format in all cases: in vivo
Parameters in all cases: key: 0 is no effect; 10 is complete control
[1] = test system: wheat (Triticum aestivum)
Outline: (§1)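 Compounds in a surfactant-containing, non-phytotoxic solvent blend are applied to freshly planted seed (preemergence) and, concurrently, to seedlings of 2 to 18 cm at 1–4 leaves (postemergence). Plants stay in the greenhouse twelve to sixteen days and are then scored visually from 0 (no effect) to 10 (complete control).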

[2] = test system: pigweed (Amaranthus retroflexus)
Outline: as §1

[3] = test system: bedstraw (Galium aparine); conditions: for Bedstraw plant response rating: Preemergence
Outline: as §1

corn (Zea mays) = conditions: for Corn plant response rating: Preemergence
Outline: as §1

[4] = test system: crabgrass (Digitaria sanguinalis); conditions: for Crabgrass plant response rating: Preemergence
Outline: as §1

[5] = test system: velvetleaf (Abutilon theophrasti)
Outline: as §1

rape (Brassica napus) = test system: rape (Brassica napus)
Outline: as §1

[6] = test system: giant foxtail (Setaria faberii)
Outline: as §1

[7] = test system: broadleaf signalgrass (Brachiaria decumbens); conditions: for B. signalgrass plant response rating: Preemergence
Outline: as §1

[8] = test system: sugar beet (Beta vulgaris)
Outline: as §1

soybean (Glycine max) = test system: soybean (Glycine max)
Outline: as §1

[9] = test system: purple nutsedge (Cyperus rotundus)
Outline: as §1

[10] = test system: momingglory (Ipomoea hederacea)
Outline: as §1

[11] = test system: cocklebur (Xanthium strumarium); conditions: for Cocklebur plant response rating: Preemergence
Outline: as §1

[12] = Rate 250 g/ha, Postemergence (so in the source)
[13] = Rate 250 g/ha, Postemergence as printed in head r139 (second section for compounds 26-50)

Cc1cnc(-n2ccc(C(F)(F)F)n2)nc1Cc1cccc(OC(F)(F)F)c1 [Compound 42]
1: Wheat plant response rating ([1]; Rate 62 g/ha, Preemergence) | Corn plant response rating (corn (Zea mays); Rate 125 g/ha) | Cocklebur plant response rating ([11]; Rate 62 g/ha)
0: Corn plant response rating (corn (Zea mays); Rate 62 g/ha) | Plant response rating, Nutsedge ([9]; Rate 62 g/ha, Postemergence) | Nutsedge plant response rating ([9]; Rate 62 g/ha, Preemergence) | Nutsedge plant response rating ([9]; Rate 125 g/ha, Postemergence) | Plant response rating, Nutsedge [9, 12]
9: Plant response rating, Redroot pigweed ([2]; Rate 62 g/ha, Postemergence) | Redroot pigweed plant response rating ([2]; Rate 62 g/ha, Preemergence) | Redroot pigweed plant response rating ([2]; Rate 125 g/ha, Postemergence) | Plant response rating, Redroot pigweed ([2]; Rate 250 g/ha, Postemergence) | Plant response rating, Bedstraw ([3]; Rate 62 g/ha, Postemergence) | Plant response rating, Bedstraw ([3]; Rate 125 g/ha, Postemergence) | Crabgrass plant response rating ([4]; Rate 62 g/ha) | Velvetleaf plant response rating ([5]; Rate 125 g/ha, Postemergence) | Plant response rating, Velvetleaf ([5]; Rate 250 g/ha, Postemergence) | Plant response rating, Giant foxtail ([6]; Rate 250 g/ha, Postemergence) | B. signalgrass plant response rating ([7]; Rate 62 g/ha) | B. signalgrass plant response rating ([7]; Rate 125 g/ha) | Plant response rating, Soybean (soybean (Glycine max); Rate 62 g/ha, Postemergence) | Soybean plant response rating (soybean (Glycine max); Rate 125 g/ha, Postemergence) | Plant response rating, Soybean (soybean (Glycine max); Rate 250 g/ha, Postemergence) | Morningglory plant response rating ([10]; Rate 62 g/ha, Preemergence) | Morningglory plant response rating ([10]; Rate 125 g/ha, Postemergence) | Plant response rating, Morningglory ([10]; Rate 250 g/ha, Postemergence) | Plant response rating, Cocklebur ([11]; Rate 62 g/ha, Postemergence) | Plant response rating, Cocklebur ([11]; Rate 125 g/ha, Postemergence) | Plant response rating, Cocklebur ([11]; Rate 250 g/ha, Postemergence)
3: Wheat plant response rating ([1]; Rate 125 g/ha, Postemergence) | Plant response rating, Corn (corn (Zea mays); Rate 62 g/ha, Postemergence) | Plant response rating, Corn (corn (Zea mays); Rate 125 g/ha, Postemergence) | Cocklebur plant response rating ([11]; Rate 125 g/ha)
2: Wheat plant response rating ([1]; Rate 62 g/ha, Postemergence) | Plant response rating, Wheat ([1]; Rate 125 g/ha, Preemergence) | Plant response rating, Corn (corn (Zea mays); [12]) | Soybean plant response rating (soybean (Glycine max); Rate 62 g/ha, Preemergence) | Plant response rating, Nutsedge ([9]; Rate 250 g/ha, Postemergence)
8: Bedstraw plant response rating ([3]; Rate 125 g/ha) | Plant response rating, Bedstraw [3, 12] | Plant response rating, Corn (corn (Zea mays); Rate 250 g/ha, Postemergence) | Plant response rating, Crabgrass ([4]; Rate 250 g/ha, Postemergence) | Plant response rating, Velvetleaf ([5]; Rate 62 g/ha, Postemergence) | Plant response rating, Morningglory ([10]; Rate 62 g/ha, Postemergence) | Plant response rating, Cocklebur [11, 12]
10: Redroot pigweed plant response rating ([2]; Rate 125 g/ha, Preemergence) | Plant response rating, Redroot pigweed [2, 12] | Crabgrass plant response rating ([4]; Rate 125 g/ha) | Plant response rating, Crabgrass [4, 12] | Velvetleaf plant response rating ([5]; Rate 62 g/ha, Preemergence) | Plant response rating, Velvetleaf [5, 12] | Plant response rating, Rape (rape (Brassica napus); Rate 62 g/ha, Postemergence) | Rape plant response rating (rape (Brassica napus); Rate 125 g/ha, Postemergence) | Rape plant response rating (rape (Brassica napus); Rate 125 g/ha, Preemergence) | Plant response rating, Rape (rape (Brassica napus); Rate 250 g/ha, Postemergence) | Plant response rating, Rape (rape (Brassica napus); [12]) | Giant foxtail plant response rating ([6]; Rate 62 g/ha, Preemergence) | Giant foxtail plant response rating ([6]; Rate 125 g/ha, Preemergence) | Plant response rating, Giant foxtail [6, 12] | Plant response rating, B. signalgrass [7, 13] | Plant response rating, Sugarbeets ([8]; Rate 62 g/ha, Postemergence) | Sugarbeets plant response rating ([8]; Rate 62 g/ha, Preemergence) | Sugarbeets plant response rating ([8]; Rate 125 g/ha, Postemergence) | Plant response rating, Sugarbeets ([8]; Rate 125 g/ha, Preemergence) | Plant response rating, Sugarbeets ([8]; Rate 250 g/ha, Postemergence) | Plant response rating, Sugarbeets [8, 12] | Morningglory plant response rating ([10]; Rate 125 g/ha, Preemergence) | Plant response rating, Morningglory [10, 12]
4: Plant response rating, Wheat ([1]; Rate 250 g/ha, Postemergence) | Plant response rating, Wheat [1, 12] | Plant response rating, Crabgrass ([4]; Rate 62 g/ha, Postemergence) | Plant response rating, Soybean (soybean (Glycine max); Rate 125 g/ha, Preemergence) | Plant response rating, Soybean (soybean (Glycine max); [12])
7: Bedstraw plant response rating ([3]; Rate 62 g/ha) | Plant response rating, Crabgrass ([4]; Rate 125 g/ha, Postemergence) | Plant response rating, Velvetleaf ([5]; Rate 125 g/ha, Preemergence) | Rape plant response rating (rape (Brassica napus); Rate 62 g/ha, Preemergence) | Giant foxtail plant response rating ([6]; Rate 125 g/ha, Postemergence) | Plant response rating, B. signalgrass ([7]; Rate 125 g/ha, Postemergence) | Plant response rating, B. signalgrass ([7]; Rate 250 g/ha, Postemergence)
6: Plant response rating, Giant foxtail ([6]; Rate 62 g/ha, Postemergence) | Plant response rating, B. signalgrass ([7]; Rate 62 g/ha, Postemergence)

Cc1cnc(-n2cnc(C(F)(F)F)n2)nc1Cc1cccc(C(F)(F)F)c1 [Compound 43]
6: Plant response rating, B. signalgrass ([7]; Rate 250 g/ha, Postemergence)
1: Corn plant response rating (corn (Zea mays); Rate 62 g/ha) | Corn plant response rating (corn (Zea mays); Rate 125 g/ha) | Plant response rating, Corn (corn (Zea mays); [12]) | Soybean plant response rating (soybean (Glycine max); Rate 62 g/ha, Preemergence) | Cocklebur plant response rating ([11]; Rate 62 g/ha)
4: Wheat plant response rating ([1]; Rate 125 g/ha, Postemergence) | Plant response rating, Corn (corn (Zea mays); Rate 125 g/ha, Postemergence) | Plant response rating, B. signalgrass ([7]; Rate 62 g/ha, Postemergence) | Plant response rating, B. signalgrass ([7]; Rate 125 g/ha, Postemergence)
7: Plant response rating, Crabgrass ([4]; Rate 62 g/ha, Postemergence) | Giant foxtail plant response rating ([6]; Rate 62 g/ha, Preemergence) | Plant response rating, Soybean (soybean (Glycine max); [12]) | Plant response rating, Cocklebur ([11]; Rate 125 g/ha, Postemergence)
9: Plant response rating, Bedstraw ([3]; Rate 62 g/ha, Postemergence) | Bedstraw plant response rating ([3]; Rate 125 g/ha) | Velvetleaf plant response rating ([5]; Rate 125 g/ha, Postemergence) | Plant response rating, Velvetleaf ([5]; Rate 250 g/ha, Postemergence) | Plant response rating, Rape (rape (Brassica napus); Rate 62 g/ha, Postemergence) | Giant foxtail plant response rating ([6]; Rate 125 g/ha, Postemergence) | Giant foxtail plant response rating ([6]; Rate 125 g/ha, Preemergence) | Plant response rating, Giant foxtail ([6]; Rate 250 g/ha, Postemergence) | Plant response rating, Giant foxtail [6, 12] | B. signalgrass plant response rating ([7]; Rate 125 g/ha) | Plant response rating, B. signalgrass [7, 13] | Soybean plant response rating (soybean (Glycine max); Rate 125 g/ha, Postemergence) | Plant response rating, Soybean (soybean (Glycine max); Rate 250 g/ha, Postemergence) | Plant response rating, Morningglory ([10]; Rate 62 g/ha, Postemergence) | Morningglory plant response rating ([10]; Rate 62 g/ha, Preemergence) | Morningglory plant response rating ([10]; Rate 125 g/ha, Postemergence) | Plant response rating, Cocklebur ([11]; Rate 250 g/ha, Postemergence)
3: Wheat plant response rating ([1]; Rate 62 g/ha, Postemergence) | Plant response rating, Corn (corn (Zea mays); Rate 62 g/ha, Postemergence) | Plant response rating, Nutsedge ([9]; Rate 250 g/ha, Postemergence)
2: Wheat plant response rating ([1]; Rate 62 g/ha, Preemergence) | Plant response rating, Wheat ([1]; Rate 125 g/ha, Preemergence) | Plant response rating, Wheat [1, 12] | Nutsedge plant response rating ([9]; Rate 125 g/ha, Postemergence) | Cocklebur plant response rating ([11]; Rate 125 g/ha) | Plant response rating, Cocklebur [11, 12]
0: Plant response rating, Nutsedge ([9]; Rate 62 g/ha, Postemergence) | Nutsedge plant response rating ([9]; Rate 62 g/ha, Preemergence) | Nutsedge plant response rating ([9]; Rate 125 g/ha, Preemergence)
8: Bedstraw plant response rating ([3]; Rate 62 g/ha) | Crabgrass plant response rating ([4]; Rate 62 g/ha) | Plant response rating, Crabgrass ([4]; Rate 125 g/ha, Postemergence) | Plant response rating, Velvetleaf ([5]; Rate 62 g/ha, Postemergence) | Rape plant response rating (rape (Brassica napus); Rate 62 g/ha, Preemergence) | Plant response rating, Giant foxtail ([6]; Rate 62 g/ha, Postemergence) | Plant response rating, Soybean (soybean (Glycine max); Rate 62 g/ha, Postemergence)
5: Plant response rating, Wheat ([1]; Rate 250 g/ha, Postemergence) | Plant response rating, Corn (corn (Zea mays); Rate 250 g/ha, Postemergence) | B. signalgrass plant response rating ([7]; Rate 62 g/ha) | Plant response rating, Soybean (soybean (Glycine max); Rate 125 g/ha, Preemergence)
10: Plant response rating, Redroot pigweed ([2]; Rate 62 g/ha, Postemergence) | Redroot pigweed plant response rating ([2]; Rate 62 g/ha, Preemergence) | Redroot pigweed plant response rating ([2]; Rate 125 g/ha, Postemergence) | Redroot pigweed plant response rating ([2]; Rate 125 g/ha, Preemergence) | Plant response rating, Redroot pigweed ([2]; Rate 250 g/ha, Postemergence) | Plant response rating, Redroot pigweed [2, 12] | Plant response rating, Bedstraw ([3]; Rate 125 g/ha, Postemergence) | Plant response rating, Bedstraw ([3]; Rate 250 g/ha, Postemergence) | Plant response rating, Bedstraw [3, 12] | Crabgrass plant response rating ([4]; Rate 125 g/ha) | Plant response rating, Crabgrass ([4]; Rate 250 g/ha, Postemergence) | Plant response rating, Crabgrass [4, 12] | Velvetleaf plant response rating ([5]; Rate 62 g/ha, Preemergence) | Plant response rating, Velvetleaf ([5]; Rate 125 g/ha, Preemergence) | Plant response rating, Velvetleaf [5, 12] | Rape plant response rating (rape (Brassica napus); Rate 125 g/ha, Postemergence) | Rape plant response rating (rape (Brassica napus); Rate 125 g/ha, Preemergence) | Plant response rating, Rape (rape (Brassica napus); Rate 250 g/ha, Postemergence) | Plant response rating, Rape (rape (Brassica napus); [12]) | Plant response rating, Sugarbeets ([8]; Rate 62 g/ha, Postemergence) | Sugarbeets plant response rating ([8]; Rate 62 g/ha, Preemergence) | Sugarbeets plant response rating ([8]; Rate 125 g/ha, Postemergence) | Plant response rating, Sugarbeets ([8]; Rate 125 g/ha, Preemergence) | Plant response rating, Sugarbeets ([8]; Rate 250 g/ha, Postemergence) | Plant response rating, Sugarbeets [8, 12] | Morningglory plant response rating ([10]; Rate 125 g/ha, Preemergence) | Plant response rating, Morningglory ([10]; Rate 250 g/ha, Postemergence) | Plant response rating, Morningglory [10, 12]

From patent publication US6525001B1, “Substituted pyrimidine and pyridine herbicides” (Mid-American Commercialization Corporation, priority 1997, dated 2003)
